Assay results as given in patent publication EP0133795B1 (THE McLEAN HOSPITAL CORPORATION, priority 1983, dated 1985).
pIC50: −log10 of the molar value. Several values for one entry are separate records, joined by “and”; a condition that tells them apart may be missing. Equal entries are not always repeated. Entries after “also recorded” stand apart in the source; their conditions may differ.

What was measured:
[1] = Comparative brain/liver uptake of 14C-labeled compounds (Brain Penetration Index)
Experimental: The criterion used herein for measuring the extent to which a compound, from which the radical A is derived, crosses the blood-brain barrier is based on the uptake of this compound by the brain relative to its uptake by the liver. […] Measurements of the quantity of a compound present in brain and liver at 5 minutes after a subcutaneous (s.c.) injection were used to calculate a Brain Penetration Index (BPI), with the equation: [formula]
This is the amount of the compound present per gram of brain tissue as a percent of the amount per gram of liver tissue.
This procedure has the advantage that even for a sparingly soluble lipid ester, which tends to remain largely at the site of the injection and slowly diffuse into the circulation, its level in the liver will reflect the amount available rather than the initial dose injected.
The uptake of a ^14C-labeled compound into brain was compared with the uptake into liver of the same animal.
All determinations were carried out at 5 min after injection. The volumes of the injected doses into mice (body weight, 18-24 g) for the i.v., i.p., and s.c. doses were 0.15, 0.3 and 0.5 ml, respectively. […] Each tissue was homogenized in 8 ml of pyridine in a glass homogenizer.
Each labeled test compound was injected as a solution in 0.5 ml of saline (Compound 7) or in 25% propylene glycol in water (Compounds 1, 5, 6) subcutaneously (s.c.) into young adult Balb/c mice (18-24 g body weight). After 5 min (or longer) animals were sacrificed and the brain and liver removed, weighed and homogenized respectively in 8 ml and 10 ml of brain protein solvent (1 % (w/v) sodium dodecyl sulfate in 6 M urea and 19 mM EDTA, pH 7.4, 0.03 M phosphate). Aliquots (0.5 ml) of the homogenates were mixed with 10 ml of Aquasol 2 (New England Nuclear) and counted in a Beckman liquid scintillation counter. The total uptake of each compound per g brain and liver tissue was calculated. The proportion of uptake into brain as compared to liver (100%) of the same animal was designated as the Brain Penetration Index (BPI), expressed as a percentage typically at 5 min after injection.
Each of the ^14C-labeled Compounds 26, 28 and 30 were in 125 µl of the propylene glycol diluted with water up to 0.5 ml, and then injected subcutaneously into test Balb/c mice (20 ± 2 g weight). After 5 min the animals were sacrificed and the brain and liver were removed, weighed and homogenized in 8 ml and 10 ml of brain protein solvent, respectively. Next 0.5 ml aliquots were mixed with 10 ml of Aquasol 2 (New England Nuclear Corp., Boston, MA) and counted in a Beckman liquid scintillation counter. The data for the label in each tissue were used to calculate the total quantity of the compound present in brain and liver per gram of tissue. The ratio of the amount in brain as a percent of that present in liver at 5 min was taken as the Brain Penetration Index (BPI). Measurements at longer uptake times were also obtained to evaluate the accumulation of the compounds in the brain.

[2] = tested on: general motor activity of mice; assay: General locomotor activity of mice (Stoelting electronic activity monitor); format: in vivo, Balb/c mice; conditions: for activity in the general motor activity test (in words): mice
Experimental: The effect of intraperitoneal (i.p.) injections of test compounds on the general motor activity of mice during a 60-min period was determined in a Stoelting electronic activity monitor. Dose-response curves were obtained from which the half-maximally effective values were calculated and the results are shown in Table V.
The compounds were dissolved in 25% (vols.) propylene glycol in water and injected i.p. into Balb/c mice (18-24 g). Dose-response measurements were obtained for 6 animals per dose or time point. Activity was monitored for 60 min using a Stoelting Electronic Activity Monitor (EAM) apparatus to assess the general motor activity of the animals.
The general locomotor activity of mice was measured in the Stolting activity monitor apparatus during 60 min after an intraperitoneal (i.p.) injection of a test compound.

[3] = tested on: bicuculline-induced epileptic seizures; assay: Delay of onset of bicuculline-induced seizures (anticonvulsant activity); format: in vivo, mouse; conditions: for Onset of seizures: % Saline Control / Survival Time: % Saline Control: 24 hr pretreatment, bicuculline 0.3 mg/kg; for In Vivo Delay of Time of Onset of Bicuculline-induced seizures: graded 0-5
Experimental: In a second behavioral test, the ability of a substance to prevent or delay the onset of biculline-induced epileptic seizures was measured. […] At 24 hr after i.p. injection of the cholesteryl derivative at a dose of 30 mg/kg (64 pmol/kg), the onset of seizures was delayed by 30% after an acute i.p. injection of bicuculline at 0.3 mg/kg. […] The dexamethasone and butyl esters had no effect.
The compounds were also injected i.p. at 1, 6 and 24 hr before the administration of bicuculline (0.3 mg/kg) s.c. The latency to the onset of generalized tonic-clonic epileptic seizures and the protection against the lethality of bicuculline were measured and evaluated as a percent of the data for vehicle-injected controls. No significant changes were obtained at the 1 hr and 6 hr time points. At the 24 hr time, however, some compounds delayed while others accelerated the onset of seizures.
The effect of the compound to delay the onset of a bicuculline-induced seizures was evaluated.
The ability of a substance to delay the onset of bicuculline-induced epileptic seizures in the mouse was measured (Table X). […] At 24 hr after i.p. injection of the cholesteryl derivative (6) at a dose of 30 mg/kg (64 pmol/kg), the onset of seizures was delayed by 30% (as compared to saline controls) after an acute i.p. injection of bicuculline at 0.3 mg/kg. […] The dexamethasone and butyl esters had no effect on seizures in mice.

GABA "receptors" = assay: Inhibition of [3H]GABA binding to synaptic membranes from rat cerebellum; conditions: [3H]GABA (15 nM); synaptic membrane preparations from rat cerebellum
Experimental: IC50 values were determined by fitting data to linearized transformations, based on including at least two concentrations of antagonists above and below the IC50, with at least triplicate replication per concentration.

[4] = tested on: general motor activity of mice; assay: General locomotor activity of mice (Stoelting electronic activity monitor); format: in vivo, Balb/c mice; conditions: 500 µg administered intracisternally directly into the cerebrospinal fluid
CAI pyramidal cells = format: cell-based, Sprague-Dawley rats
Experimental: Transverse slices of hippocampus (350-375 µm thick) were prepared from Sprague-Dawley rats (200-300 g) and transferred onto a nylon net fixed over a 1.5 ml superfusion chamber. The slices were maintained at 32-33°C in a humidified atmosphere of 95%/5% 02/C02. The standard medium consisted of (in mM): NaCl, 125; KCI, 3.5; CaC12,2; MgS04, 1.5; NaH2PO4, 1; NaHC03, 24; and glucose, 10. Low chloride medium was prepared by substituting sodium isethionate for sodium chloride.
Extracellular potentials were recorded with NaCI-fitted micropipettes, and stimulus pulses were applied through bipolar platinum wire electrodes. The various drugs were dissolved in fresh medium (without glucose and phosphate) and applied to the surface of the tissue by pressure ejection from a micropipette, Sakai, Swartz and Woody, (1979).
The inhibitory effectiveness of various compounds was investigated by measuring their ability to suppress the extracellular population spike recorded from the hippocampal CAI pyramidal layer and elicited by stimulation of stratum radiatum axons. The amplitude of this monosynaptic population spike is essentially proportional to the number of pyramidal cells discharging in response to a stimulus volley, Andersen, Bliss and Skrede, (1971).
The various compounds were applied as droplets to the pyramidal layer approximately 75 µm from the recording electrode. The volume of a single drug application was about 300 picoliters. […] The volume ejected from each pipette was calibrated prior to use by measuring the diameter of the ejected droplet and adjusting the duration of the pressure pulse (usually 100-500 msec) until a standard diameter was reached. A constant droplet volume was used throughout the experiments. Where dose-response information was required, several pipettes with different drug concentrations were used.

general motor activity = conditions: systemically injected doses of up to 1 g/kg (9.7 mmol/kg); previous experiments; cited from earlier work
[5] = 260 μmol/kg s.c., 5 min, mice, mean ± S.E.M. (n = 3)
[6] = Table IX summary, 5-min Brain Penetration Index
[7] = Table VI, 270 μmol/kg s.c., 5 min, Balb/c mice

For `CC/C=C\C/C=C\C/C=C\CCCCCCCCOC(=O)CCCN` [Compound 5, Linolenoyl Ester of y-aminobutyric Acid], the “(BRAIN)” value [1, 5] was 3.5 ± 0.4 nmol/g, the “(LIVER)” value [1, 5] was 141.7 ± 8 nmol/g and the BPI [1, 5] was 2 ± 0.6%. For the same compound, the “(BRAIN)” value ([1]; 260 μmol/kg s.c., 15 min, mice) was 11.0 nmol/g, the “(LIVER)” value ([1]; 260 μmol/kg s.c., 15 min, mice) was 220.8 nmol/g and the BPI ([1]; 260 μmol/kg s.c., 15 min, mice) was 5%. The “(BRAIN)” value ([1]; 260 μmol/kg s.c., 45 min, mice) was 24.9 nmol/g, the “(LIVER)” value ([1]; 260 μmol/kg s.c., 45 min, mice) was 33.3 nmol/g and the BPI ([1]; 260 μmol/kg s.c., 45 min, mice) was 75%. The “increase of 5-min BPI over GABA” value ([1]; 5 min after s.c. injection, relative to GABA) was 2 fold, the BPI [1, 6] was 2 and the “accumulation of radioactivity in brain persisted post-injection” value ([1]; s.c., mice) was 45 to 60 min. The “activity in the general motor activity test (in words)” value ([2]; i.p., listed as linolenyl ester) was “not active”, the “activity in the general motor activity test (in words)” value ([2]; i.p., listed as linolenyl ester of GABA) was “insignificant effect; also recorded: no significant effect” and the “Onset of seizures: % Saline Control” value ([3]; 12 mg/kg) was 102 ± 4 % Saline Control. For the same compound, the “Survival Time: % Saline Control” value ([3]; 12 mg/kg) was 118 ± 10 % Saline Control, the “Onset of seizures: % Saline Control” value ([3]; 17 mg/kg) was 73 ± 15 % Saline Control and the “Survival Time: % Saline Control” value ([3]; 17 mg/kg) was 111 ± 14 % Saline Control. The “Onset of seizures: % Saline Control” value ([3]; 25 mg/kg) was 78 ± 9 % Saline Control, the “Survival Time: % Saline Control” value ([3]; 25 mg/kg) was 68 ± 9 % Saline Control and the “Onset of seizures: % Saline Control” value ([3]; 36 mg/kg) was 50 ± 5 % Saline Control. For the same compound, the “Survival Time: % Saline Control” value ([3]; 36 mg/kg) was 62 ± 6 % Saline Control, the “Onset of seizures: % Saline Control” value ([3]; 50 mg/kg) was 40 ± 11 % Saline Control and the “Survival Time: % Saline Control” value ([3]; 50 mg/kg) was 63 ± 8 % Saline Control. For the same compound, the “acceleration of seizure onset time” value ([3]; 50 mg/kg, 24 hr, listed as linolenyl ester of GABA) was 70% and 60%, the “In Vivo Delay of Time of Onset of Bicuculline-induced seizures” value [3] was 0 and the pIC50 (GABA "receptors") was 4.40.

With `NCCCC(=O)O` [GABA, gamma-aminobutyric acid, reference compound] the “(BRAIN)” value ([1]; 30 μmol/kg i.v., 5 min, mouse) was 0.04 nmol/g, the “(LIVER)” value ([1]; 30 μmol/kg i.v., 5 min, mouse) was 4.2 nmol/g and the “BPI (5 min)” value ([1]; 30 μmol/kg i.v., 5 min, mouse) was 0.95%. The “(BRAIN)” value ([1]; 60 μmol/kg i.p., 5 min, mouse) was 0.23 nmol/g, the “(LIVER)” value ([1]; 60 μmol/kg i.p., 5 min, mouse) was 29 nmol/g and the “BPI (5 min)” value ([1]; 60 μmol/kg i.p., 5 min, mouse) was 0.80%. For the same compound, the “(BRAIN)” value ([1]; 120 μmol/kg i.p., 5 min, mouse) was 0.45 nmol/g, the “(LIVER)” value ([1]; 120 μmol/kg i.p., 5 min, mouse) was 46 nmol/g and the “BPI (5 min)” value ([1]; 120 μmol/kg i.p., 5 min, mouse) was 1.00%. For the same compound, the “(BRAIN)” value ([1]; 160 μmol/kg i.p., 5 min, mouse) was 0.66 nmol/g, the “(LIVER)” value ([1]; 160 μmol/kg i.p., 5 min, mouse) was 71 nmol/g and the “BPI (5 min)” value ([1]; 160 μmol/kg i.p., 5 min, mouse) was 0.93%. The “(BRAIN)” value ([1]; 210 μmol/kg i.p., 5 min, mouse) was 0.83 nmol/g, the “(LIVER)” value ([1]; 210 μmol/kg i.p., 5 min, mouse) was 83 nmol/g and the “BPI (5 min)” value ([1]; 210 μmol/kg i.p., 5 min, mouse) was 1.00%. The “(BRAIN)” value ([1]; 270 μmol/kg s.c., 5 min, mouse) was 1.03 nmol/g, the “(LIVER)” value ([1]; 270 μmol/kg s.c., 5 min, mouse) was 104 nmol/g and the “BPI (5 min)” value ([1]; 270 μmol/kg s.c., 5 min, mouse) was 1.00%. For the same compound, the “(BRAIN)” value ([1]; 380 μmol/kg s.c., 5 min, mouse) was 1.81 nmol/g, the “(LIVER)” value ([1]; 380 μmol/kg s.c., 5 min, mouse) was 165 nmol/g and the “BPI (5 min)” value ([1]; 380 μmol/kg s.c., 5 min, mouse) was 1.10%. The BPI [1, 6] was 1, the “(BRAIN)” value [1, 7] was 1.03 nmol/g and the “(LIVER)” value [1, 7] was 104 nmol/g. For the same compound, the BPI ([1]; Table VI, 270 μmol/kg s.c., 5 min, Balb/c mice, mean ± S.E.M.) was 1±.09%, the “effect on general motor activity” value [4] was “no significant effect” and the “effect after incubation of slices in PMSF (0.5 mM) for about 45 min” value (CAI pyramidal cells) was “no change”. The “effect with picrotoxin (10 µM) in the medium or low chloride medium” value (CAI pyramidal cells) was “little effect”, the “recovery of the population spike amplitude to 90% of the pre-droplet control value” (CAI pyramidal cells; after an approximately half-maximal dose) was 1 to 2 min and the “time until recovery was usually complete” value (CAI pyramidal cells; after droplet application) was 2 to 3 min. For the same compound, the “effect on motor activity in rats” value (general motor activity) was “little effect”, the “effect on general motor activity” value ([2]; 1.94 mmol/kg, i.p.) was “no significant effect” and the “effect on general locomotor activity” value ([2]; dose of 9.7 mmol/kg (1 g/kg)) was “no significant effect”. The “In Vivo Delay of Time of Onset of Bicuculline-induced seizures” value [3] was 0.
